Our source for the melting point values is patent publication US6391872B1, “Indazole bioisostere replacement of catechol in therapeutically active compounds” (Pfizer Inc, priority 1997, dated 2002).

Consider `CCc1nn(-c2ccc(F)cc2)c2cc(Br)ccc12` [Example 24, 6-Bromo-3-ethyl-1-(4-fluorophenyl)-1H-indazole], for which the melting point (as a rule, the temperature of the solid-liquid transition) is 72 to 73 °C.

The compound `CCc1nn(C2CCCC2)c2cc(C3(C#N)CCC(=O)CC3)ccc12` [Example 6, 1-(1-Cyclopentyl-3-ethyl-1H-indazol-6-yl)-4-oxo-cyclohexanecarbonitrile] had a melting point of 81 to 89 °C.

As for `CCc1nn(-c2ccc(F)cc2)c2cc(C3=CCC(C(=O)O)CC3)ccc12` (stereo not drawn) [Example 28, 4-(3-ethyl-1-(4-fluorophenyl)-1H-indazol-6-yl)-cyclohex-3-ene-carboxylic acid], the melting point lay within 214 to 216 °C.
